The record followed here is publication PMC6071264 (Toxins, 2018).

Bridge positions count the residues as written; N and C are the ends. Peptide text beside a SMILES is read from it.

Broadly, the IC50 is the concentration at which inhibition is half-maximal. Usually EC50 stands for the midpoint of the concentration-response curve.

Assay [1] deals with C30 anti-STp monoclonal antibody. To be noted: read-out: IC50, inhibition of C30 mAb binding to ELISA coating (peptides from RP-HPLC peaks). In general terms: An ELISA detects its analyte on a solid surface through an enzyme-linked reagent.
Another assay concerns the target T84 cells (Homo sapiens, UniProt P25092). Description: T84 cell assay (cGMP response). The class given is cell-based. To be noted: read-out: EC50 in the T84 cell assay, pre-incubation 1 mM IBMX 10 min, sample 60 min at 37 °C, cGMP enzyme immunoassay, three independent experiments, four-parameter logistic regression, bottom set to zero, Figure 2C.

Chain of T84 cells (P25092 24-1073): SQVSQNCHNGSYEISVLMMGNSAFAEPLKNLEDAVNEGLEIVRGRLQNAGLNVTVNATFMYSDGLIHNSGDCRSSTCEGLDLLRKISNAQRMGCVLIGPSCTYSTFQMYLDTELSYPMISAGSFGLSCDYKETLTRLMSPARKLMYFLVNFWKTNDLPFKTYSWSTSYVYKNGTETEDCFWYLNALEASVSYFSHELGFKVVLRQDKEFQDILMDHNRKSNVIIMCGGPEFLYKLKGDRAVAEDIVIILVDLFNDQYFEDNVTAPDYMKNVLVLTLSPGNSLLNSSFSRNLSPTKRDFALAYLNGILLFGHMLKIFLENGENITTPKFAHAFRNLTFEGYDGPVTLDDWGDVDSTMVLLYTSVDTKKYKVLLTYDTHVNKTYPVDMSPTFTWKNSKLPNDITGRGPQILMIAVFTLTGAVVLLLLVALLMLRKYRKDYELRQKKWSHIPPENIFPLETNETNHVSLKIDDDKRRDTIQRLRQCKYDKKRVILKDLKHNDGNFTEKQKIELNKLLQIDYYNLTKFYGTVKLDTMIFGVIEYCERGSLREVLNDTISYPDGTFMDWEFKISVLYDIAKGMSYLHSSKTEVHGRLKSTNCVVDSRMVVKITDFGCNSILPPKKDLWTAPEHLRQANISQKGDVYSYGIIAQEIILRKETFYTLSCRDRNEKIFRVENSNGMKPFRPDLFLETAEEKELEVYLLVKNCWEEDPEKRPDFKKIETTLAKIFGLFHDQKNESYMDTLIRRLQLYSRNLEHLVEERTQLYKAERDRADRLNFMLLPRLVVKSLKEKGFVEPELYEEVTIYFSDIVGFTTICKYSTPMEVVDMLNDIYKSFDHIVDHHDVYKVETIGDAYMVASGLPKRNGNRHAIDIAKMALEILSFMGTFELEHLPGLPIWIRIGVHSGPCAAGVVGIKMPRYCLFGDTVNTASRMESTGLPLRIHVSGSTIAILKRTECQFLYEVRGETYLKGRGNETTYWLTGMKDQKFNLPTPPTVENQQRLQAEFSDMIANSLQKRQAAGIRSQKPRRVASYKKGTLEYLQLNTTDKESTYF

As to `CC(C)C[C@@H]1NC(=O)[C@H](CCC(=O)O)NC(=O)[C@@H]2CSSC[C@@H]3NC(=O)[C@H](C)NC(=O)[C@@H]4CCCN4C(=O)[C@H](CC(N)=O)NC(=O)[C@H](CSSC[C@H](NC(=O)[C@H](Cc4ccc(O)cc4)NC(=O)[C@H](CC(N)=O)NC(=O)[C@H](CO)NC(=O)[C@H](CO)NC(=O)[C@@H](N)CC(N)=O)C(=O)N2)NC(=O)[C@H](CSSC[C@@H](C(=O)N[C@@H](Cc2ccc(O)cc2)C(=O)O)NC(=O)CNC(=O)[C@H]([C@@H](C)O)NC3=O)NC1=O` [synthetic STh] (H-NSSNYCCELCCNPACTGCY-OH; disulfide 6-11, 7-15, 10-18), the IC50 in assay [1] worked out at 2.3 ± 0.1 nM. The EC50 at T84 cells is 9.6 ± 1.8 nM.

For `CC(C)C[C@@H]1NC(=O)[C@H](CCC(=O)O)NC(=O)[C@@H]2CSSC[C@@H]3NC(=O)[C@H](C)NC(=O)[C@@H]4CCCN4C(=O)[C@H](CC(N)=O)NC(=O)[C@H](CSSC[C@H](NC(=O)[C@H](Cc4ccc(O)cc4)NC(=O)[C@H](Cc4ccccc4)NC(=O)[C@@H](NC(=O)[C@@H](N)CC(N)=O)[C@@H](C)O)C(=O)N2)NC(=O)[C@H](CSSC[C@@H](C(=O)N[C@@H](Cc2ccc(O)cc2)C(=O)O)NC(=O)CNC(=O)[C@H](C)NC3=O)NC1=O` [STp], at T84 cells, the EC50 was found to be 15.4 ± 3.8 nM.

In the case of `CC(C)C[C@@H]1NC(=O)[C@H](CCC(=O)O)NC(=O)[C@@H]2CSSC[C@@H]3NC(=O)[C@H](C)NC(=O)[C@@H]4CCCN4C(=O)[C@H](CC(N)=O)NC(=O)[C@H](CSSC[C@H](NC(=O)[C@H](Cc4ccc(O)cc4)NC(=O)[C@H](CC(N)=O)NC(=O)[C@H](CO)NC(=O)[C@H](CO)NC(=O)[C@@H](N)CC(N)=O)C(=O)N2)NC(=O)[C@H](CSSC[C@@H](C(=O)N[C@@H](Cc2ccc(O)cc2)C(=O)O)NC(=O)CNC(=O)[C@H]([C@@H](C)O)NC3=O)NC1=O` [STh] (H-NSSNYCCELCCNPACTGCY-OH; disulfide 6-11, 7-15, 10-18), the IC50 in assay [1] was 4.2 ± 0.3 nM. Moreover, on T84 cells, the EC50 was found to be 15.4 ± 3 nM.

With `CC(C)C[C@@H]1NC(=O)[C@H](CCC(=O)O)NC(=O)[C@@H]2CSSC[C@@H]3NC(=O)[C@H](C)NC(=O)[C@@H]4CCCN4C(=O)[C@H](CC(N)=O)NC(=O)[C@H](CSSC[C@H](NC(=O)[C@H](Cc4ccc(O)cc4)NC(=O)[C@H](CC(N)=O)NC(=O)[C@H](CO)NC(=O)[C@H](CO)NC(=O)[C@@H](N)CC(N)=O)C(=O)N2)NC(=O)[C@H](CSSC[C@@H](C(=O)N[C@@H](Cc2ccc(O)cc2)C(=O)O)NC(=O)CNC(=O)[C@H]([C@@H](C)O)NC3=O)NC1=O` [ETEC STh] (H-NSSNYCCELCCNPACTGCY-OH; disulfide 6-11, 7-15, 10-18; N-terminus and C-terminus assumed), the EC50 at T84 cells is 22.9 ± 6.8 nM.
